PubChem BioAssay AID1963962 (Molecular Pharmacology Branch, DTP, NCI, 2024)
pIC50: −log10 of the molar value.

System: 967376-340-R-J2-PDC multicell spheroid viability
Test: Anticancer human tumor 967376-340-R-J2-PDC patient-derived colon adenocarcinoma cell line growth inhibition [PI3K]
Conditions: for pIC50: curve of first compound; for viability, T/C: stronger effect = lower value; active means viability on the fitted dose curve at most 10% of control; inactive means the rest
Text: Combinatorial screen of targeted agents with the PI3K inhibitors inavolisib, alpelisib, duvelisib, and copanlisib in multi-cell type tumor spheroids
A high-throughput screen of multi-cell type tumor spheroids was designed to identify active combinations of targeted small molecules and PI3K pathway inhibitors. Complex spheroids include a stromal component modeled by human endothelial cells (HUVEC) and fibroblasts modeled by human mesenchymal stem cells (MSCs). The concentration ranges selected for each drug and investigational agent were based upon clinically achievable concentrations if the clinical Cmax of the agent was known.
Compounds. The drugs and investigational agents: inavolisib (NSC800729), alpelisib (NSC765974), duvelisib (NSC772469), copanlisib (NSC816437), ipatasertib (NSC767898), afuresertib (NSC778305), talazoparib (NSC767125), sapanisertib (NSC764658), selumetinib (NSC741078), tovorafenib (DAY101, NSC766906), vemurafenib (NSC761431), ravoxertinib (NSC781343), sotorasib (NSC818433), MRTX1133 (NSC 836407), abemaciclib (NSC 768073), palbociclib (NSC758247), venetoclax (NSC 766270), SY5609 (NSC837396), enzalutamide (NSC755605), and darolutamide (NSC825331), were obtained from the National Cancer Institute (NCI) Developmental Therapeutics Program Chemical Repository. The FDA-approved anticancer drug set is available from the NCI Developmental Therapeutics Program. […] The stock solutions were prepared in dimethyl sulfoxide (DMSO, Sigma-Aldrich, St. Louis, MO, cat. D2650) at 800-fold the tested concentration and stored at -70 degrees C prior to their use. All drugs and investigational agents were tested over a range starting from a high concentration at or near the clinical Cmax and decreasing in half-log increments. If the clinical Cmax for an agent had not been determined, the highest concentration tested was 10 microM.
Cell Culture. All cells were maintained in an incubator at 37 degrees C and 5% CO2 with 95% humidity. The PDC lines were cultured according to standard operating procedures established by the NCI PDMR (https://pdmr.cancer.gov/sops/default.htm). All PDCs were thawed and cultured in Matrigel-coated flasks prepared with a working solution of 1X Ham's F-12 nutrient mix, without supplementation (Invitrogen, Waltham, MA, cat. 11765054), 100 U/mL penicillin-streptomycin (Invitrogen, cat. 15140122), and 2.5% Matrigel (Corning Inc., Corning, NY, cat. 354248) for the first three passages. The 354836-022-R-J1-PDC, 475296-252-R-J1-PDC, and 997726-040-R-J2-PDC lines were cultured in 6A media, which includes advanced DMEM/F-12 (Thermo Fisher Scientific, cat. 12634028), 10 mM HEPES (Thermo Fisher Scientific, cat. 15630080), 1X GlutaMAX supplement (Thermo Fisher Scientific, cat. 35050061), 0.1 mg/mL primocin (InvivoGen, San Diego, CA, cat. ant-pm-2), 10% defined fetal bovine serum, heat inactivated (HyClone Laboratories Inc., Logan, UT, cat. SH30070.03HI), 50% L-WRN conditioned media (ATCC, cat. CRL-3276), 1.25 mM N-Acetyl-L-cysteine (Sigma-Aldrich, cat. A9165), 10 mM nicotinamide (Sigma-Aldrich, cat. N0636), 1X B-27 supplement (Thermo Fisher Scientific, cat. 17504044), 1X N-2 supplement (Thermo Fisher Scientific, cat. 17502048), and 10 microM Y-27632 dihydrochloride (Tocris Bioscience, Bristol, United Kingdom, cat. 1254). The 624824-186-R-J2-PDC line was cultured in 6C/Colon 1B media, which includes all 6A media components plus 50 ng/mL human EGF recombinant protein (Thermo Fisher Scientific, cat. PHG0311). […]
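Further: spheroids exposed to agents for 7 days before read-out.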
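Wherever viability, T/C is given: luminescence used as surrogate of cell viability.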

CCCS(=O)(=O)Nc1ccc(F)c(C(=O)c2c[nH]c3ncc(-c4ccc(Cl)cc4)cc23)c1F + CC(Nc1ncnc2nc[nH]c12)c1cc2cccc(Cl)c2c(=O)n1-c1ccccc1
inactive: viability, T/C (second compound 0.0316 µM, first compound 0.0316 µM) 122% | viability, T/C (second compound 0.0316 µM, first compound 0.1 µM) 125% | viability, T/C (second compound 0.0316 µM, first compound 0.316 µM) 109% | viability, T/C (second compound 0.0316 µM, first compound 1 µM) 113% | viability, T/C (second compound 0.0316 µM, first compound 3.16 µM) 103% | viability, T/C (second compound 0.0316 µM, first compound 10 µM) 58.9% | viability, T/C (second compound 0.1 µM, first compound 0.0316 µM) 97.2% | viability, T/C (second compound 0.1 µM, first compound 0.1 µM) 106% | viability, T/C (second compound 0.1 µM, first compound 0.316 µM) 99.1% | viability, T/C (second compound 0.1 µM, first compound 1 µM) 90.5% | viability, T/C (second compound 0.1 µM, first compound 3.16 µM) 92% | viability, T/C (second compound 0.1 µM, first compound 10 µM) 52.7% | viability, T/C (second compound 0.316 µM, first compound 0.0316 µM) 103% | viability, T/C (second compound 0.316 µM, first compound 0.1 µM) 89.1% | viability, T/C (second compound 0.316 µM, first compound 0.316 µM) 96.6% | viability, T/C (second compound 0.316 µM, first compound 1 µM) 96.3% | viability, T/C (second compound 0.316 µM, first compound 3.16 µM) 109% | viability, T/C (second compound 0.316 µM, first compound 10 µM) 60.4% | viability, T/C (second compound 1 µM, first compound 0.0316 µM) 98.2% | viability, T/C (second compound 1 µM, first compound 0.1 µM) 95.4% | viability, T/C (second compound 1 µM, first compound 0.316 µM) 105% | viability, T/C (second compound 1 µM, first compound 1 µM) 92.7% | viability, T/C (second compound 1 µM, first compound 3.16 µM) 110% | viability, T/C (second compound 1 µM, first compound 10 µM) 58.4% | viability, T/C (second compound 3.16 µM, first compound 0.0316 µM) 119% | viability, T/C (second compound 3.16 µM, first compound 0.1 µM) 79.9% | viability, T/C (second compound 3.16 µM, first compound 0.316 µM) 92.2% | viability, T/C (second compound 3.16 µM, first compound 1 µM) 111% | viability, T/C (second compound 3.16 µM, first compound 3.16 µM) 100% | viability, T/C (second compound 3.16 µM, first compound 10 µM) 74.9% | viability, T/C (second compound 10 µM, first compound 0.0316 µM) 84.2% | viability, T/C (second compound 10 µM, first compound 0.1 µM) 87.1% | viability, T/C (second compound 10 µM, first compound 0.316 µM) 80% | viability, T/C (second compound 10 µM, first compound 1 µM) 88.7% | viability, T/C (second compound 10 µM, first compound 3.16 µM) 98.7% | viability, T/C (second compound 10 µM, first compound 10 µM) 61.1%
< 5.00: pIC50 (second compound 0.0316 µM) | pIC50 (second compound 0.1 µM) | pIC50 (second compound 0.316 µM) | pIC50 (second compound 1 µM) | pIC50 (second compound 3.16 µM) | pIC50 (second compound 10 µM)
